From patent US7026514B2, “Compounds used to treat alcoholism” (Garbil Pharma Investigacion Chile Ltda., priority 2001, dated 2006)

How the values were obtained:
[1] = tested on: genetically-alcoholic rats, UChB strain; assay: Anti-alcoholism activity in genetically-alcoholic rats (3 or 6 day treatment); type: in vivo, Wistar rats; conditions: for lowered alcohol consumption: vs reference period
Source text: (§1) As an animal model of alcoholic mammals, including human beings, adult Wistar rats of both sexes, belonging to the UChB strain were used. This strain of rats is the result of a long selection at the University of Chile, and rats belonging to it are known to be volunteer consumers of 10% (v/v) aqueous alcohol (cf. J. Mardones and N. Segovia-Riquelme, “Thirty two years of selection of rats by ethanol preference”: UChA and UChB strains”, Neurobehav. Toxicol. and Teratol. 1983, vol. 5, pp. 171–178). Thus, the rats used in these experiments can be considered genetically alcoholic.
Rats were kept in individual cages at 22° C., with alternative 12 h periods of light and darkness. Besides unlimited access to food, they had ad libitum access to water and 10% (v/v) aqueous alcohol. All experiments were double-blind, and results were analyzed using common statistical methods. As changes in alcohol consumption might be influenced by the eagerness of food and/or water intake, both the consumption of food and of water were measured and analyzed. […] In each experiment the following three periods of time were considered:
a) A reference period, consisting of the three days previous to treatment. The measured consumption values were used as reference for comparison purposes.
b) A treatment period, consisting of the three or six days during which aqueous solutions of the tested compound were intra-gastrically administered, always at the same time of the day. N,N′-bis(3-aminopropyl)cyclohexane-1,4-diamine tetramethanesulfonate monohydrate was administered at two doses, 20 mg/kg of body weight and 40 mg/kg, using aqueous solutions of the tested compound of concentrations 10 g/L and 20 g/L, respectively. Dose of 20 mg/kg was tested both for 3 consecutive days and 6 consecutive days. Dose of 40 mg/kg was tested only for 3 consecutive days.
c) A post-treatment period, consisting of the three days immediate after the treatment period, during which measurement were taken in order to establish the duration of the effect and the reversibility of the changes.

[2] = tested on: genetically-alcoholic rats, UChB strain; assay: Anti-alcoholism activity during a prolonged treatment period (30 days); type: in vivo, Wistar rats; conditions: 40 mg/kg, treatment period of 30 days
Source text: as §1
Rats were kept in individual cages at 22° C., with alternative 12 h periods of light and darkness. […] All experiments were double-blind, and results were analyzed using common statistical methods. As changes in alcohol consumption might be influenced by the eagerness of food and/or water intake, both the consumption of food and of water were measured and analyzed. […]
(§2) The effect of the administration of N,N′-bis(3-aminopropyl)-cyclohexane-1,4-diamine tetramethanesulfonate monohydrate to Wistar rats of both sexes belonging to the UChB strain, at a dose of 40 mg/kg during a treatment period of 30 days, was assessed in an experiment analogous to the one of Example 4. Individual consumptions of alcohol and water, measured daily, were grouped in cycles of 3 consecutive days, thus reducing data to ten average values.

[3] = tested on: metabolism of acetaldehyde; assay: Assessment of disulfiram-like adverse effect (blood acetaldehyde after ethanol, gas chromatography); type: in vivo, Wistar male rats
Protocol: The possible disulfiram-like adverse effect of N,N′-bis(3-aminopropyl)cyclohexane-1,4-diamine tetramethanesulfonate monohydrate was studied by gas-chromatographic measurements of the blood concentration of acetaldehyde in standard Wistar male rats, after the intraperitoneal administration of 2.76 g/kg of ethanol in the form of 10% (v/v) aqueous solution. Blood samples were taken from the tail (0.5, 1.0 and 2.0 h after ethanol administration) and from the suprahepatic vein (2.0 h after ethanol administration).

[4] = tested on: genetically-alcoholic rats, UChB strain; assay: Anti-alcoholism activity during a post-treatment period (27 days); type: in vivo, Wistar rats; conditions: 27 days after the 30-day treatment at 40 mg/kg
Protocol: as §2
The effect of the administration of N,N′-bis(3-aminopropyl)-cyclohexane-1,4-diamine tetramethanesulfonate monohydrate to Wistar rats of both sexes belonging to the UChB strain, during a post-treatment period of 27 days (9 cycles of 3 days) after the prolonged treatment of Example 5, was assessed in an analogous experiment. […] Therefore, the effect of N,N′-bis(3-aminopropyl)-cyclohexane-1,4-diamine tetramethanesulfonate monohydrate lasts substantially for a long time after a prolonged treatment, without recovering the initial levels of alcohol/water consumption.

Compound	lowered alcohol consumption ([1]; 20 mg/kg intra-gastric for 6 days, first 6 hours after administration, p<0.01) [%]	decrease of alcohol consumption along the post-treatment period ([1]; 40 mg/kg for 3 days, three days after treatment)	lowered alcohol consumption ([1]; 40 mg/kg intra-gastric for 3 days) [%]	decreases of alcohol consumption in the period of 6-24 h ([1]; 6-24 h after administration, compared with first 6 h)	changes in the consumption of both food and water ([1]; 20 or 40 mg/kg, 3 or 6 days)	overall activity as anti-alcoholism agent ([1]; overall results of Example 4)	decrease in alcohol consumption at the end of the treatment period [2] [%]	levels of acetaldehyde in blood ([3]; 40 mg/kg oral 2, 6, 8 and 24 h before 2.76 g/kg i.p. ethanol, blood at 0.5, 1.0, 2.0 h)	block of the metabolism of acetaldehyde ([3]; conclusion from blood acetaldehyde after ethanol, disulfiram in a control test)	decrease of alcohol consumption at the end of the post-treatment period [4] [%]	block of the metabolism of acetaldehyde ([3]; rat, in vivo)
CS(=O)(=O)O.CS(=O)(=O)O.CS(=O)(=O)O.CS(=O)(=O)O.NCCCNC1CCC(NCCCN)CC1.O (centres unmarked) [N,N′-bis(3-aminopropyl)cyclohexane-1,4-diamine tetramethanesulfonate monohydrate]	25	this decrease was kept along the post-treatment period	27	smaller	not significant	substantial activity as anti-alcoholism agent	71	did not raised levels of acetaldehyde in blood	does not block the metabolism of acetaldehyde significantly	24	–
CCN(CC)C(=S)SSC(=S)N(CC)CC [disulfiram, tetraethylthiuram disulfide, reference compound]	–	–	–	–	–	–	–	–	–	–	contrary to what happens with disulfiram
